Assay [1] deals with phosphorylation of Histone H3. The assay is described as follows: HeLa cell 1-hour phospho-histone assay. The following applies: HeLa cells. The class given is cell-based. Here is the method:
HeLa cell 1-hour phospho-histone assay
The purpose of this assay is to test the inhibitory effect of Aurora compounds with respect to phosphorylation of Histone H3 in the cellular context. HeLa cells (9x10^4/well) are plated in black 96-well flat-bottom tissue culture plates and incubated for 40 hours prior to compound addition. Compounds are serially diluted in DMSO, followed by dilution into MEM containing […] HEPES; 10ul/well of diluted compounds are added to cells (0.5% DMSO final). Cells are incubated for 1 hour at 37 °C in 5% CO2. Cells are then fixed with 3.7% formaldehyde for 10 minutes, washed with wash buffer (1% goat serum and 0.1% Tween 20 in PBS), then permeabilized with 0.5% Triton X in PBS for 15 minutes. After washing with wash buffer, cells are incubated with primary antibody (Upstate #06-507 anti-phospho-histone (Ser 10) antibody (pHH3) for 1 hour at 10ug/ml. After 2 washes with wash buffer, cells are incubated with secondary antibody (Molecular Probes #A11034 goat anti-rabbit Alexa-488 for 1 hour at 1ug/ml + Hoechst 33342 nuclear dye at 1ug/ml (Molecular Probes). Cells are washed 2 times with wash buffer, and buffer replaced with PBS. Plates are scanned on the Cellomics Array Scan (6 fields, ~2000 cells/well) and % of cells that are pHH3 positive were calculated using the Cellomics algorithm.

Another assay has as its target T1, AuroraB (Homo sapiens, UniProt Q96GD4).
T1 construct: 20 µL of AuroraB FL His; His
The assay is described as follows: AuroraB Homogeneous Time Resolved Fluorescent (HTRF) kinase assay. In kind it is biochemical. In a few lines:
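Full-length His-tagged AuroraB (400 pM) phosphorylates 0.1 µM biotinylated Histone H3 with 23 µM ATP (Km(app)) in HEPES pH 7.5 with Mg/Mn, about 90 min. EDTA-quenched; Eu-anti-phosphoHistoneH3 and SA-APC HTRF, 655/615 nm ratio as phosphorylation.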
(In TR-FRET formats the signal depends on donor and acceptor labels being close together.)

Another assay has as its target T2, AuroraA-TPX2 (Homo sapiens, UniProt O14965).
T2 construct: 20 µL of AuroraA-TPX2 KD GST; GST
T2 sequence (O14965 133-383 limits assumed): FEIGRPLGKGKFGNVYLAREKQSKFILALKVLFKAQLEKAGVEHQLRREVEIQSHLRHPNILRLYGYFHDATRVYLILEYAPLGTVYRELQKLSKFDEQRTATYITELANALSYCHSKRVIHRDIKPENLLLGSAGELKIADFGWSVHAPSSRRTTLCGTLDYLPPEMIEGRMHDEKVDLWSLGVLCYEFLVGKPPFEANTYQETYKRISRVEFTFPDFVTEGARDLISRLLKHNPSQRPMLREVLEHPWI
T2 sequence (Q9ULW0 1-43 partner limits assumed): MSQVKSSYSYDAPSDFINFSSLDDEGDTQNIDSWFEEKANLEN
The assay is described as follows: AuroraA-TPX2 Homogeneous Time Resolved Fluorescent (HTRF) kinase assay. The class given is biochemical. The conditions noted are these: average, read-out: AurA/TP X2_ IC50_IP (Avg). In outline:
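Aurora-A/TPX2 phosphorylates biotinylated PLK peptide (about 1 µM) with ATP for about 120 min in 60 mM HEPES pH 7.5, 10 mM MgCl2, 2 mM DTT. EDTA quench, overnight equilibration with Eu-anti-phosphoPLK antibody and SA-APC; HTRF read at 615/655 nm after 320 nm excitation.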

Where [2] appears, read: Homo sapiens, HeLa, 1 h, 1 hour incubation, % of cells pHH3 positive, read-out: inhibitory activity (EC50) in the phospho-histone H3 assay.
Setting [3] is: Homo sapiens, HeLa, 1 h, 1 hour, average, given as class symbols, read-out: pHH3 EC50_IP (Avg).
Setting [4] is: average, given as class symbols, read-out: AurB_ _IC50_IP (Avg).
[5] abbreviates: Homo sapiens, HeLa, 1 h, 1 hour, average, given as numbers, unit inferred, read-out: pHH3 EC50_IP (Avg).
Where [6] appears, read: given as numbers, unit inferred.
Where [7] appears, read: average, given as numbers, unit inferred, read-out: AurB_ _IC50_IP (Avg).

From patent EP1984353B1, “AURORA KINASE MODULATORS AND METHOD OF USE” (Amgen, Inc, priority 2006, dated 2007) come the findings set out here.

Like-named read-outs stand apart in the source and are kept apart here. Where only a bound is given, the exact number is not on record here.

T1 sequence (Q96GD4 whole entry): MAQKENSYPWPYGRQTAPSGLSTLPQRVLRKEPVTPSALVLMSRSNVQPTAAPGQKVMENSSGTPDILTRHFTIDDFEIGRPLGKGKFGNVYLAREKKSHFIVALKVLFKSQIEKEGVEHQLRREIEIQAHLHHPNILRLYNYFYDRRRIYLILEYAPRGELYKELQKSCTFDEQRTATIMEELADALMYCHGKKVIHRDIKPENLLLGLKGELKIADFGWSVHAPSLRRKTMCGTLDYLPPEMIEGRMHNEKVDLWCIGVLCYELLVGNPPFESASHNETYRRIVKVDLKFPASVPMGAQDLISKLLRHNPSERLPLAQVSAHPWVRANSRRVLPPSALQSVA

Take `CNc1nccc(-c2cccnc2Oc2ccc(Nc3nnc(-c4ccsc4)c4ccccc34)cn2)n1` [Example 92, N-(6-((3-(2-(methylamino)-4-pyrimidinyl)-2-pyridinyl)oxy)-3-pyridinyl)-4-(3-thienyl)-1-phthalazinamine]: the EC50 in assay [1] (setting [2]) was < 1000 nM.

Consider `CNc1nccc(-c2cccnc2Oc2ccc(Nc3nnc(-c4ccccc4)c4c3CCCC4)cn2)n1` [Example 105, N-(6-((3-(2-(methylamino)-4-pyrimidinyl)-2-pyridinyl)oxy)-3-pyridinyl)-4-phenyl-5,6,7,8-tetrahydro-1-phthalazinamine], for which the EC50 in assay [1] (setting [2]) was < 1000 nM.

For `CNc1nccc(-c2cccnc2Oc2ccc(Nc3nnc(-c4ccccc4)c4c3C3CCC4CC3)cc2)n1` [Example 107, N-(4-((3-(2-(methylamino)-4-pyrimidinyl)-2-pyridinyl)oxy)phenyl)-6-phenyl-4,5-diazatricyclo [6.2.2.0-2,7-]dodeca-2,4,6-trien-3-amine], in assay [1] (1 hour incubation, % of cells pHH3 positive, read-out: inhibitory activity (EC50) in the phospho-histone H3 assay), the EC50 was < 1000 nM.

Take `CNc1nccc(-c2cccnc2Oc2ccc(Nc3nnc(-c4ccccc4)c4c3CCC4)cn2)n1` [Example 108, N-(6-((3-(2-(methylamino)-4-pyrimidinyl)-2-pyridinyl)oxy)-3-pyridinyl)-4-phenyl-6,7-dihydro-5H-cyclopenta[d]pyridazin-1-amine]: in assay [1] (setting [2]), the EC50 is < 1000 nM.

With `Cc1cc(-c2ccccc2)nnc1Nc1ccc(Oc2ncccc2-c2ccnc(N)n2)cc1` [Example 119, N-(4-((3-(2-amino-4-pyrimidinyl)-2-pyridinyl)oxy)phenyl)-4-methyl-6-phenyl-3-pyridazinamine], in assay [1] (setting [2]), the EC50 is < 1000 nM.

`CNc1cc(-c2cccnc2Oc2ccc(Nc3nnc(-c4ccccc4)c4c3CCC4)cn2)ccn1` [Example 120, N-methyl-2-((5-((4-phenyl-6,7-dihydro-5H-cyclopenta[d]pyridazin-1-yl)amino)-2-pyridinyl)oxy)-3,4'-bipyridin-2'-amine]: the EC50 in assay [1] (setting [2]) is < 1000 nM.

As to `Nc1[nH]ncc1-c1cccnc1Oc1ccc(Nc2nnc(-c3ccccc3)c3ccccc23)cc1` [Example 238, N-(4-((3-(5-amino-1H-pyrazol-4-yl)-2-pyridinyl)oxy)phenyl)-4-phenyl-1-phthalazinamine], the EC50 in assay [1] (setting [2]) was < 1000 nM. The IC50 on AuroraB (read-out: inhibitory activity (IC50) in the Aurora kinase B HTRF assay) was < 500 nM.

`Nc1nccc(-c2cccnc2Oc2ccc(Nc3nnc(-c4ccccc4)cc3-c3ccccc3)cc2)n1` [compound 246, N-(4-((3-(2-amino-4-pyrimidinyl)-2-pyridinyl)oxy)phenyl)-4,6-diphenyl-3-pyridazinamine]: the EC50 in assay [1] (setting [3]) is 500 to 2500 nM. The IC50 was 500 to 2500 nM on AuroraA-TPX2 (given as class symbols) and ≤ 100 nM on AuroraB (setting [4]).

Regarding `Nc1nccc(-c2cccnc2Oc2ccc(Nc3nnc(-c4ccc(CCO)cc4)c4ccccc34)cc2)n1` [compound 247, 2-(4-(4-((4-((3-(2-amino-4-pyrimidinyl)-2-pyridinyl)oxy)phenyl)amino)-1-phthalazinyl)phenyl)ethanol], in assay [1] (setting [5]), the EC50 was 335 nM. Moreover, the values for the IC50 on AuroraA-TPX2 (setting [6]) and at AuroraB (setting [7]) were 19.8 nM and 4.2 nM, respectively.

In the case of `CNc1nccc(-c2cccnc2Oc2ccc(Nc3nnc(-c4ccccc4)c4ccccc34)nc2)n1` [compound 248, N-(5-((3-(2-(methylamino)-4-pyrimidinyl)-2-pyridinyl)oxy)-2-pyridinyl)-4-phenyl-1-phthalazinamine], in assay [1] (setting [5]), the EC50 amounted to 465 nM. Further, the IC50 at AuroraA-TPX2 (setting [6]) is 149 nM; on AuroraB (setting [7]), 11 nM.

On to `Cc1cc(Br)cnc1Nc1ccc(Oc2ncccc2-c2ccncc2)cc1` [compound 264, N-(4-(3,4'-bipyridin-2-yloxy)phenyl)-5-bromo-3-methyl-2-pyridinamine], for which, in assay [1] (setting [3]), the EC50 lay within 500 to 2500 nM. Besides, the IC50 on AuroraB (setting [4]) is 500 to 2500 nM.

On to `Cc1csc(-c2nnc(Nc3ccc(Oc4ncccc4-c4ccnc(N)n4)cc3)c3ccccc23)c1` [compound 331, N-(4-((3-(2-amino-4-pyrimidinyl)-2-pyridinyl)oxy)phenyl)-4-(4-methyl-2-thienyl)-1-phthalazinamine], for which, in assay [1] (setting [3]), the EC50 is ≤ 100 nM. For the same compound, the IC50 at AuroraB (setting [4]) was ≤ 100 nM.

As for `Nc1nccc(-c2cccnc2Oc2ccc(Nc3nnc(-c4ccccc4)c4ccccc34)cn2)n1` [compound 415, N-(6-((3-(2-amino-4-pyrimidinyl)-2-pyridinyl)oxy)-3-pyridinyl)-4-phenyl-1-phthalazinamine], the EC50 in assay [1] (setting [3]) is ≤ 100 nM.

As to `Cc1csc(-c2nnc(Nc3ccc(Oc4ncccc4-c4ccnc(N)c4)cc3)c3ccccc23)c1` [compound 416, 2-((4-((4-(4-methyl-2-thienyl)-1-phthalazinyl)amino)phenyl)oxy)-3,4'-bipyridin-2'-amine], the EC50 in assay [1] (setting [5]) was 134 nM.

For `Cc1cc(-c2ccccc2)nnc1Nc1ccc(Oc2ncccc2-c2ccnc(N)c2)cc1` [compound 418, 2-((4-((4-methyl-6-phenyl-3-pyridazinyl)amino)phenyl)oxy)-3,4'-bipyridin-2'-amine], the EC50 in assay [1] (setting [3]) is 100 to 500 nM.

Turning to `Cc1csc(-c2cc(C)c(Nc3ccc(Oc4ncccc4-c4ccnc(N)c4)cc3)nn2)c1` [compound 419, 2-((4-((4-methyl-6-(4-methyl-2-thienyl)-3-pyridazinyl)amino)phenyl)oxy)-3,4'-bipyridin-2'-amine], the EC50 in assay [1] (setting [3]) is 100 to 500 nM.

For `CCc1cc(-c2ccccc2)nnc1Nc1ccc(Oc2ncccc2-c2ccnc(N)c2)cc1` [compound 420, 2-((4-((4-ethyl-6-phenyl-3-pyridazinyl)amino)phenyl)oxy)-3,4'-bipyridin-2'-amine], the EC50 in assay [1] (setting [5]) turned out to be 314 nM.

In the case of `O=C(O)CCCNc1nccc(-c2cccnc2Oc2ccc(Nc3nnc(-c4ccccc4)c4ccccc34)cc2)n1` [compound 427, 4-((4-(2-((4-((4-phenyl-1-phthalazinyl)amino)phenyl)oxy)-3-pyridinyl)-2-pyrimidinyl)amino)butanoic acid], the EC50 in assay [1] (setting [3]) was 500 to 2500 nM.

Regarding `Cc1csc(-c2cc(C)c(Nc3ccc(Oc4ncccc4-c4ccncc4)cc3)nn2)c1` [compound 428, N-(4-(3,4'-bipyridin-2-yloxy)phenyl)-4-methyl-6-(4-methyl-2-thienyl)-3-pyridazinamine], the EC50 in assay [1] (setting [3]) was 500 to 2500 nM.

In the case of `Cc1cc(-c2ccccc2)nnc1Nc1ccc(Oc2ncccc2-c2ccnc(NCCCO)n2)cc1` [compound 429, 3-((4-(2-((4-((4-methyl-6-phenyl-3-pyridazinyl)amino)phenyl)oxy)-3-pyridinyl)-2-pyrimidinyl)amino)-1-propanol], the EC50 in assay [1] (setting [3]) fell in the range of 100 to 500 nM.

Take `Cc1cc(-c2ccccc2)nnc1Nc1ccc(Oc2ncccc2-c2ccnc(NCCCC(=O)O)n2)cc1` [compound 430, 4-((4-(2-((4-((4-methyl-6-phenyl-3-pyridazinyl)amino)phenyl)oxy)-3-pyridinyl)-2-pyrimidinyl)amino)butanoic acid]: the EC50 in assay [1] (setting [3]) was 500 to 2500 nM.

Regarding `Nc1cc(-c2cccnc2Oc2ccc(Nc3nnc(-c4ccccc4)c4ccccc34)cn2)ccn1` [compound 431, 2-((5-((4-phenyl-l-phthalazinyl)amino)-2-pyridinyl)oxy)-3,4'-bipyridin-2'-amine], the EC50 in assay [1] (setting [3]) is ≤ 100 nM.

For the compound `O=c1cc(-c2cccnc2Oc2ccc(Nc3nnc(-c4ccccc4)c4ccccc34)cc2)cc[nH]1` [compound 432, 2-((4-((4-phenyl-1-phthalazinyl)amino)phenyl)oxy)-3,4'-bipyridin-2'(1'H)-one], in assay [1] (setting [3]), the EC50 fell in the range of 500 to 2500 nM.

Turning to `Cc1csc(-c2cc(C)c(Nc3ccc(Oc4ncccc4-c4ccnc(N)c4)cc3)nn2)n1` [compound 434, 2-((4-((4-methyl-6-(4-methyl-1,3-thiazol-2-yl)-3-pyridazinyl)amino)phenyl)oxy)-3,4'-bipyridin-2'-amine], the EC50 in assay [1] (setting [5]) worked out at 1000 nM.
